This test has as its system HESC (hES2) co-cultured with END-2 cells. The test can be described thus: HESC-END-2 co-culture, scoring of beating areas. Type of test: cell-based, human. The conditions noted are these: 10^−4 M ascorbic acid, serum-free HESC-END-2 co-culture, day 12, 12-well plates, n=6. The protocol:
END-2 cells and HESC lines hES2, hES3 and hES4 cells (passage number between 41-84) were cultured as described previously in Reubinoff B E, Pera M F, Fong C Y et al. Embryonic stem cell lines from human blastocysts: somatic differentiation in vitro. Nat Biotechnol 2000; 18:399-404 and Mummery C, Ward-van Oostwaard D, Doevendans P et al. Differentiation of human embryonic stem cells to cardiomyocytes: role of coculture with visceral endoderm-like cells. Circulation 2003; 107:2733-2740. To initiate co-cultures, END-2 cell cultures, treated for 3 hr with mitomycin C (mit.C; 10 μg/ml), replaced mouse embryonic fibroblasts (MEFs) as feeders for hES cells (Mummery et al (2003) and Mummery C L, van Achterberg T A, van den Eijnden-van Raaij A J et al. Visceral-endoderm-like cell lines induce differentiation of murine P19 embryonal carcinoma cells. Differentiation 1991; 46:51-60). As a control HESC were also grown on MEFs for the same period under the same culture conditions. In standard co-cultures, cells were grown in 12-well plates in DMEM containing L-glutamine, insulin-transferrin-selenium, non-essential amino acids, 90 μM β-mercaptoethanol, penicillin/streptomycin, and 20% FCS (Multicell, Wisent Inc, Canada). Co-cultures were then grown for up to 3 weeks and scored for the presence of areas of beating muscle from 5 days onwards. […]

Consider `O=C1O[C@H]([C@@H](O)CO)C(O)=C1O` [ascorbic acid], for which the “increase in the number of beating areas compared to untreated serum-free co-cultures” value came out at 40%.

Values taken from patent US20080254003A1, “Differentiation of Human Embryonic Stem Cells and Cardiomyocytes and Cardiomyocyte Progenitors Derived Therefrom” (priority 2004, published 2008).
